Laboratory results reported in US10765690B2, “TLR4 agonists and compositions thereof and their use in the treatment of cancer” (GlaxoSmithKline Intellectual Property Development Limited, priority 2015, dated 2020).
Several values for one entry are separate records, joined by “and”; a condition that tells them apart may be missing. Identical values can stand only once.

What was measured:
[1] = tested on: Murine CT-26 colon carcinoma cells; test: CT-26 syngeneic colon carcinoma model, intratumoral or intravenous monotherapy (Example 10, studies 1-3); format: in vivo, Balb/c mice
Protocol: The in vivo anti-tumor efficacy of the TLR4 agonist (CRX-601) was assessed in the murine CT-26 colon carcinoma syngeneic solid tumor model as a monotherapy and in combination with […] a therapeutic antibody (combination data not shown). Seven to eight week old female Balb/c mice (BALB/cAnNCrl, Charles River) were used in these studies. Murine CT-26 colon carcinoma cells (ATCC catalog number CRL-2638 lot #59227052) were cultured in RPMI growth medium supplemented with 10% fetal bovine serum (FBS) in a humidified 37° C. incubator with 5% CO2, CT-26 cells cultured in logarithmic growth were harvested from tissue culture flasks and centrifuged for 5 minutes at 450×g at 4° C. for ten minutes to pellet cells. The supernatant was discarded, and cells were washed in ice cold phosphate buffered saline (PBS) without calcium and magnesium and centrifuged again for 5 minutes at 450×g at 4° C. for ten minutes to pellet cells. The cells were resuspended in sterile RPMI media without FBS and adjusted to a cell concentration of 500,000 cells/ml, 100 μl of the cell stock was implanted via subcutaneous injection into the right flank of each Balb/c mouse. After ten or eleven days when the average tumor size reached approximately 100 mm^3, mice were randomized into study cohorts according to tumor size and the first treatment dose was given. The TLR4 agonist (CRX-601) or vehicle was dosed via a systemic intravenous or direct intratumoral injection as indicated. The CRX-601 vehicle used for intravenous and intratumoral dosing was […] where indicated. For CRX-601 liposomal intratumoral dosing, a DOPC/CHOL liposome prepared by GSK Lot #1783-157-B was used. The therapeutic antibody was dosed via an intraperitoneal injection given twice per week for a total of six doses. Caliper measurements were taken three times per week to assess tumor growth, and mice with tumors <2,000 mm^3 were maintained on study from 30 up to approximately 115 days. Mice with tumors >2,000 mm^3 for 2 consecutive measurements or mice with tumors which formed open ulcers were removed from the study. Tumor volume was calculated using the formula (0.52)×(Length)×(Width^2). In study 3, tumor-free mice were re-challenged with CT-26 tumor cells as described above, on the opposite flank from the original inoculation site and tumor growth was monitored, as described above. All studies were conducted in accordance with the GSK Policy on the Care, Welfare and Treatment of Laboratory Animals and were reviewed by the Institutional Animal Care and Use Committee at GSK.
For studies 1 and 2, to determine significance of tumor growth inhibition, tumor volumes at 11 study 1) or 15 (study 2) days after first dose were compared between the different treatment groups. Prior to the analysis, tumor volumes were natural log transformed due to the inequality of variance in the different treatment groups. ANOVA followed by pair-wise comparison was then carried out on the log transformed data. SAS 9.3 and R 3.0.2 analysis software was used. Kaplan-Meier (KM) method was carried out to estimate the survival probability of different treatment groups at a given time. The event for survival analysis was tumor volume of 2000 mm^3 or tumor ulceration, whichever came first. The exact time to cut-off volume was estimated by fitting a linear line between log tumor volume and day of two observations, the first observation that exceed the cut-off volume and the one observation that immediately preceded the cut-off volume. The median time to endpoint and its corresponding 95% confidence interval was calculated. Whether or not KM survival curves were statistically different between any two groups was then tested by log-rank test. The raw p-value, as well as the false discovery rate (FDR) adjusted p-values, from the comparisons of days to events by survival analysis and the comparisons of log transformed tumor volume at indicated days between treatment groups was determined. […]

[2] = tested on: CT-26 cells; test: CT-26 two-flank model, abscopal effect (study 4); format: in vivo, mice
Protocol: The in vivo anti-tumor efficacy of the TLR4 agonist (CRX-601) was assessed in the murine CT-26 colon carcinoma syngeneic solid tumor model as a monotherapy and in combination with […] a therapeutic antibody (combination data not shown). Seven to eight week old female Balb/c mice (BALB/cAnNCrl, Charles River) were used in these studies. Murine CT-26 colon carcinoma cells (ATCC catalog number CRL-2638 lot #59227052) were cultured in RPMI growth medium supplemented with 10% fetal bovine serum (FBS) in a humidified 37° C. incubator with 5% CO2, CT-26 cells cultured in logarithmic growth were harvested from tissue culture flasks and centrifuged for 5 minutes at 450×g at 4° C. for ten minutes to pellet cells. The supernatant was discarded, and cells were washed in ice cold phosphate buffered saline (PBS) without calcium and magnesium and centrifuged again for 5 minutes at 450×g at 4° C. for ten minutes to pellet cells. […] Tumor volume was calculated using the formula (0.52)×(Length)×(Width^2). In study 3, tumor-free mice were re-challenged with CT-26 tumor cells as described above, on the opposite flank from the original inoculation site and tumor growth was monitored, as described above. […]
An abscopal effect is described as distant tumor regression after a local tumor treatment. […] Tumor size was monitored for both the right and left flank tumors. […]

[3] = tested on: CT-26 colorectal tumor cells; test: CT-26 syngeneic colon carcinoma model, escalating i.p. doses (Example 9); format: in vivo, Balb/c mice; conditions: CRX-601, similar experiment; 4, 20 or 100 ug

CCCCCCCCCCC[C@H](CC(=O)N[C@H]1[C@H](OC[C@H](NC(=O)C[C@@H](CCCCCCCCCCC)OCCCCCCCCCC)C(=O)O)O[C@H](CO)[C@@H](OP(=O)(O)O)[C@@H]1OC(=O)C[C@@H](CCCCCCCCCCC)OCCCCCCCCCC)OCCCCCCCCCC [CRX-601]
tumor status of single mouse remaining on study ([1]; study 1, 10 ug intratumoral group, day 42): tumor-free | tumor growth inhibition compared to vehicle ([1]; study 1, 10 ug/mouse intratumoral twice per week, 6 doses, 11 days after the initial dose, p-values 0.05): statistically significant | tumor-free mice among mice remaining on study ([1]; study 1, 50 ug intratumoral group, day 42): Three of the four | tumor volume of remaining tumor-bearing mouse ([1]; study 1, 50 ug intratumoral group, fourth mouse, day 42): 854.19 mm^3 | increase in survival compared to vehicle ([1]; study 1, 50 ug intratumoral single dose, by day 42 post CT26 inoculation, p-values<=0.05): statistically significant | tumor growth inhibition compared to vehicle ([1]; study 1, 50 ug/mouse intratumoral single dose, 11 days after the initial dose, p-values 0.05): statistically significant | anti-tumor activity (tumor growth inhibition over time) ([1]; study 1, intratumoral dosing 0.1, 1, 10 ug/mouse twice per week x6 or 50 ug single dose): dose-dependent anti-tumor activity | tumor volume of single mouse remaining on study ([1]; study 2, 10 ug intravenous group, day 32): 188.0 mm^3 | tumor growth inhibition compared to vehicle ([1]; study 2, 10 ug/mouse intravenous twice per week, 6 doses, 15 days after the initial dose, p-values<=0.05): statistically significant | tumor-free mice among mice remaining on study ([1]; study 2, 100 ug intravenous group, day 32): One of the three | tumor volumes of remaining tumor-bearing mice ([1]; study 2, 100 ug intravenous group, day 32, individual mice): 1500.49 mm^3 and 962.61 mm^3 | increase in survival compared to vehicle ([1]; study 2, 100 ug intravenous single dose, day 32 post CT-26 inoculation, p-values<=0.05): statistically significant increase | tumor growth inhibition compared to vehicle ([1]; study 2, 100 ug/mouse intravenous single dose, 15 days after the initial dose, p-values<=0.05): statistically significant | anti-tumor activity (tumor growth inhibition over time) ([1]; study 2, intravenous dosing 1, 10 ug/mouse twice per week x6 or 100 ug single dose): dose-dependent anti-tumor activity | CT26 tumor growth on re-challenge ([1]; study 3, fully regressed tumor-free mice re-challenged on day 80, opposite flank, vs naive control mice): rejected with no tumor growth | mice showing full tumor regressions ([1]; study 3 Group 2, 25 ug/mouse IV once per week x3): 5 out of 10 | increase in survival compared to control Group 1 ([1]; study 3 Group 2, 25 ug/mouse IV once per week x3, 80 days after the first dose, p-values<=0.05): statistically significant | tumor growth inhibition compared to control Group 1 ([1]; study 3 Group 2, 25 ug/mouse intravenous in 0.5% Glycerol/4% dextrose once per week x3 (+Rat IgG1), 12 days after the initial dose, p-values<=0.05): statistically significant | increase in survival compared to control Group 5 ([1]; study 3 Group 7, 25 ug/mouse intratumoral DOPC/CHOL liposome once per week x3, 80 days after the first dose, p-values<=0.05): statistically significant | tumor growth inhibition compared to control Group 5 ([1]; study 3 Group 7, 25 ug/mouse intratumoral in DOPC/CHOL liposome once per week x3 (+Rat IgG1), 12 days after the initial dose, p-values<=0.05): statistically significant | survival benefit compared to the control group ([2]; study 4, liposomal CRX-601 IT 25 ug/mouse, vs blank liposome + rat IgG1, p=0.011): significant survival benefit | abscopal effect on untreated distant tumor ([2]; study 4 group 2, left flank tumor IT injection, liposomal 25 ug/mouse, right flank tumor untreated, mouse #4 and #6): distant right flank tumor regression | tumor growth [3]: inhibited tumor growth
